What all share (design): scale not given: the % may be the effect or the level left
Test [1] addresses CDK2/Cyclin O (Homo sapiens) (UniProt P24941+P22674). Kind of test: Inhibition of human CDK2/cyclin-O assessed as enzyme activity at 30 uM using histone H1 as substrate by [gamma-33P]-ATP assay relative to control. Type of test: protein-complex assay.
The target in test [2] is T1, Dual serine/threonine and tyrosine protein kinase (Homo sapiens) (UniProt Q6XUX3).
T1 sequence (whole entry): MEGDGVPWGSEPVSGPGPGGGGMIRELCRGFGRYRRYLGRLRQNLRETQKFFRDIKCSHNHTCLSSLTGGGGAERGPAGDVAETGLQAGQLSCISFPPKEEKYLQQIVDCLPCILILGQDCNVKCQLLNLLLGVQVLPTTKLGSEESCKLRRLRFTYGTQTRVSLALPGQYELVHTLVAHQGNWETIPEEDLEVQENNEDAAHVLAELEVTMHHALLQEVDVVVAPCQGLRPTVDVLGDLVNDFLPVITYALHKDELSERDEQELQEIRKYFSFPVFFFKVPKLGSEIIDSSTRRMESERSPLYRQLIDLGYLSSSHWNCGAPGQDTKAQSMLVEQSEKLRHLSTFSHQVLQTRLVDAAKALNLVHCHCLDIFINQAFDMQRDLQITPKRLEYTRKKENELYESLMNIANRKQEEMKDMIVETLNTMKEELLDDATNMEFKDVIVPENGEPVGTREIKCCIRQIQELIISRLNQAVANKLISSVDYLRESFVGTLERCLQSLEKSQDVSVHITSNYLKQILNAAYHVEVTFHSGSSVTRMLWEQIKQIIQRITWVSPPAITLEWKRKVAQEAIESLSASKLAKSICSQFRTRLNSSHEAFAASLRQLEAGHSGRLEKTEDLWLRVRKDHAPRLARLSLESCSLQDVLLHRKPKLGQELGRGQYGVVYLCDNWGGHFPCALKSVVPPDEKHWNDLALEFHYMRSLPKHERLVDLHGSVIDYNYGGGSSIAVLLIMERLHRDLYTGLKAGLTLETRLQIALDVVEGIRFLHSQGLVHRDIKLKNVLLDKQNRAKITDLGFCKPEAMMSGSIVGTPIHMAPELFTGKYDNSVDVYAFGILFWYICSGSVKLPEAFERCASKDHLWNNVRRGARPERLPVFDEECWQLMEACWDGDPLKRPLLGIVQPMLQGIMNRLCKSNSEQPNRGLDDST
Put plainly: Inhibition of human RIPK5 assessed as enzyme activity at 30 uM using MBP as substrate by [gamma-33P]-ATP assay relative to control.

In test [3] the target is Protein kinase C beta type (Homo sapiens) (UniProt P05771). Put plainly: Inhibition of human PKCb2 assessed as enzyme activity at 30 uM using Histone H1 as substrate by [gamma-33P]-ATP assay relative to control.
The target in test [4] is T2, Serine/threonine-protein kinase haspin (Homo sapiens) (UniProt Q8TF76).
T2 sequence (whole entry): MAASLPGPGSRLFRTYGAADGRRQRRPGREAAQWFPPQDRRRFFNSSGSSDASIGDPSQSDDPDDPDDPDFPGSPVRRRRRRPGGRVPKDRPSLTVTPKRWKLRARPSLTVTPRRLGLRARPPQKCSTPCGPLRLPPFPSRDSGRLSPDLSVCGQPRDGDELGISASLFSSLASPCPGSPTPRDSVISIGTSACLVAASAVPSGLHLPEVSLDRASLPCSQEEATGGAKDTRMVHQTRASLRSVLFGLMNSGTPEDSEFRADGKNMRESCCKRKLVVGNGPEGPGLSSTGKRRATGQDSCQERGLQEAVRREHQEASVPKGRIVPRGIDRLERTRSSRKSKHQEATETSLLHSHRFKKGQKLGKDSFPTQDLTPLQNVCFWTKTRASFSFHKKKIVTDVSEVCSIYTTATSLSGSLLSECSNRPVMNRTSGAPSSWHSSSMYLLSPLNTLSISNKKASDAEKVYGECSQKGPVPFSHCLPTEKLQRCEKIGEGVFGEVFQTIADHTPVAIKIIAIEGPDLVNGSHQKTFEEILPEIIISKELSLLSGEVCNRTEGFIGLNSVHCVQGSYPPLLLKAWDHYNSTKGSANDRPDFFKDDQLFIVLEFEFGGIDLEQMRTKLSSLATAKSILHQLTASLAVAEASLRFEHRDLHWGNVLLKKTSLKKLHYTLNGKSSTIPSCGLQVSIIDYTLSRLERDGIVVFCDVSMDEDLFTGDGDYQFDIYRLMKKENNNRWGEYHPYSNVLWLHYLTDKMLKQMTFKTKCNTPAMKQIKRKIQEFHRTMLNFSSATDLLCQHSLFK
Kind of test: Inhibition of human haspin assessed as enzyme activity at 30 uM using Histone H3 as substrate by [gamma-33P]-ATP assay relative to control.

Sequence of Protein kinase C beta type (Homo sapiens) (P05771 2-671 limits assumed): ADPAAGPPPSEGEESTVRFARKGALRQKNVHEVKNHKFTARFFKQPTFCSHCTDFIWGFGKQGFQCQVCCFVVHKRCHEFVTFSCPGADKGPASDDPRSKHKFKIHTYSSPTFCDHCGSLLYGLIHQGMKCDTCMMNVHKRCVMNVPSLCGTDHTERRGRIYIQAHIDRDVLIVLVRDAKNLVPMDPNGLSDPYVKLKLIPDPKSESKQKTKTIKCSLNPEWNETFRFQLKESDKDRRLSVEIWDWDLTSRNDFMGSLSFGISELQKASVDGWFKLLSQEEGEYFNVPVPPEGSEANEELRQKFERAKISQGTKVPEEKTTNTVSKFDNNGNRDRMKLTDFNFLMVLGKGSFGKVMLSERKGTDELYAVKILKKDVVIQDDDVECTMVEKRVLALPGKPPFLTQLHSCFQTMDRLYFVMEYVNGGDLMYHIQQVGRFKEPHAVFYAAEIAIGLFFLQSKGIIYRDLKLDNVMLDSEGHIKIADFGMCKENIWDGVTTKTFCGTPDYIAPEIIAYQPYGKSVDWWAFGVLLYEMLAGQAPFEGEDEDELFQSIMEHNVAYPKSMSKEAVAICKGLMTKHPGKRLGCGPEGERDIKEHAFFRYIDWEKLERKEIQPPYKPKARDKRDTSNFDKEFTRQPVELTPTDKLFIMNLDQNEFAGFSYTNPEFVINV

As for `O=C1C=CC2(C=C1)OCC(Cc1cc(C(F)(F)F)cc(C(F)(F)F)c1)C(=O)N2c1ccccc1` (centres undefined), the Activity was in the range of 42.3 to 43.8% in test [1], 58.6 to 59.9% in test [2], 67.7 to 71.2% in test [3] and 66.1 to 66.8% in test [4].
